In US20140212478A1, “METHOD FOR PREVENTING AND/OR TREATING PERIODONTAL DISEASE” (priority 2008, published 2014):
“Also recorded” adds a separate entry of the source.

System: dental root-periodontal tissue of excised first molar (lower jaw)
Assay: Effect on dental root-periodontal tissue formation: honokiol-impregnated agarose bead embedded into dental pulp of excised mouse first molar, graft culture under kidney capsule of host mice
Format: in vivo, C57BL/6 mice
Excerpt: Dulbecco' phosphate buffered saline (hereinbelow, it is some times referred to as “D-PBS”) was purchased from Dainippon Pharmaceuticals Inc. Affi-Gel agarose beads (Affigel heparin Cat. No.: 15306173) were purchased from Bio-Rad Laboratories, Inc. Five days age of C57BL/6 mice were purchased from Sankyo Labo Service Corporation. As host mice, 10 to 15 weeks age of C57BL/6 mice (female) were purchased from Sankyo Labo Service Corporation, and used two per group. Since it was know that a kidney and an anterior chamber of eye hardly have immune response among organs in adult mice, it was not necessary to especially use nude mice in graft culture.
Honokiol-impregnated agarose beads were prepared as follows. Honokiol was diluted to the concentration of 10 μM by using D-PBS. The agarose beads were washed with D-PBS.
After washing, four agarose beads were placed in the 1.5 mL tube and 100 μL of the honokiol solution was added into it. Then, the tube was incubated at room temperature for 45 minutes to impregnated honokiol into the agarose beads. As mentioned above, absorptive beads including heparin honokiol impregnation (hereinbelow, it is sometimes referred to as “honokiol-impregnated agarose beads”) were prepared.
Alternatively, another four agarose beads were placed in the 1.5 mL tube and 100 μL of D-PBS was added into it to prepare D-PBS-impregnated agarose beads were prepared, and they were used as negative control.
Five days age of […] mice, where their dental root-periodontal tissue was just before formed, were anesthetized and sacrificed by decapitation. After excised lower jaw of them, the first molars in the lower jaw were excised with dental follicles. One of the honokiol-impregnated agarose beads prepared in the (5-1) was embedded into the dental pulp of the excised teeth, the first molar in the lower jaw.
As the negative control, one of the D-PBS-impregnated agarose beads prepared was embedded into the dental pulp of another excised teeth, the first molar in the lower jaw.
The excised teeth under which the honokiol-impregnated agarose bead was embedded, and that under which the D-PBS impregnated agarose bead was embedded, were respectively grafted under capsule of kidney of the host mice. The host mice were bred under the condition of 12 hours lighting, at room temperature, 25° C., free taking feed and water for three weeks.
After three weeks from grafting of the excised tooth, the host mice were sacrificed by dislocation of cervical vertebrae to excise the kidney to recover the cultured excised tooth (grafted tooth).
Formation of dental root-periodontal tissue (extension), coat of the dental root, and bone of the grafted tooth, which was recovered, were observed under stereoscopic microscope, and then subjected to tomography by using micro CT. […]

honokiol
extension of dental root (dental root-periodontal tissue formation) (agarose bead impregnated with 10 μM honokiol in D-PBS, embedded into dental pulp, three weeks graft culture under kidney capsule, stereoscopic microscope and micro CT, compared to D-PBS negative control): prominent extension of dental root; also recorded: excellent promotion effect for dental root-periodontal tissue formation (extension)
bone formation around the newly formed dental root (agarose bead impregnated with 10 μM honokiol, embedded into dental pulp, three weeks graft culture under kidney capsule, all graft samples with dental root extension): bone formation around the newly formed dental root were also observed
periodontal ligament-like structure between the dental root and the bone formed (agarose bead impregnated with 10 μM honokiol, embedded into dental pulp, three weeks graft culture, soft X-ray / micro CT section): structure similar to periodontal ligamentous band was observed
promotion effect for surrounding tissue (periodontal ligament and alveolar bone), overall conclusion (pharmaceutical preparation comprising honokiol as the active ingredient, conclusion from graft culture results): promotion effect for surrounding tissue such as the periodontal ligament and alveolar bone
